# Test results taken from patent EP1311486B1, “USES OF THALIPORPHINE OR ITS DERIVATIVES IN TREATMENT OF CARDIAC DISEASES AND PREPARATION OF SAME” (Lotus Pharmaceutical Co., Ltd., priority 2000, dated 2002).
# Experiments:
# [1] = test system: guinea pig right ventricular strips; test: Ouabain-induced arrhythmia in electrically driven right ventricular strips; conditions: 10-20µM after 0.6-0.8µM ouabain
# Method: The arrhythmia was then induced 5-10 minutes after. 10-20µM THP or its derivatives were administered to reverse the ouabain-induced arrhythmia. 6-7.
# Referring to FIGs. […] The arrhythmia is then induced 5-10 minutes after.
# AV node conduction = test: His bundle electrogram of isolated heart, Langendorff perfusion, atrial pacing at 300 ms cycle length; parameters: species or system rats and guinea pigs; conditions: for atrial effective refractory period (AERP): before drug THP 60 ms, quinidine 40 ms; for ventricular effective refractory period (VERP): before drug THP 160 ms, quinidine 180 ms; for AV node effective refractory period (AVNERP): before drug THP 170 ms, quinidine 130 ms; for wenckbach cycle length (WCL): before drug THP 200 ms, quinidine 150 ms
# Method: The investigation conforms to the Guide for the Care and Use of Laboratory Animals published by the US National Institutes of Health (NIH publication No. 85-23, revised 1996). Adult rats and guinea pigs were killed after hepariniation and anesthetization with urethane (1.25 g/kg i.p.). After isolating the heart, the aorta was perfused with 10µM quinidine and THP, respectively, by Langendorff perfusion. A pair of bipolar electrodes connected with silver wire were placed on the tip of the Triangle of Koch to record the His bundle electrogram. In addition, another pair of bipolar electrodes connected with silver wire were placed on the surface of the right ventricle to record T wave. […] The QT interval, conduction time through the sinoatrial (SA interval), the atrioventricular node (AH interval) and His-purkinje system (HV interval) were recorded, respectively, using electrocardiograph. Similarly, the recovery curve of His-purkinje system (i.e. the relationship of H2V2 and V1H2), atrial and ventricular refractory period and AV node refractory period were also recorded in the same manner. 1 and 2.
# The SA, AH, HV intervals and T wave are prolonged in the quinidine-treated heart (FIG. 1). […] In addition, 3, 10 and 30µM THP can prolong the atrial effective refractory period (AERP) from 60 ms to 90, 100 and 120 ms, respectively; the ventricular effective refractory period (VERP) from 160 ms to 160, 170 and 190 ms, respectively; and the AV node effective refractory period (AVNERP) from 170 ms to 170, 200 and 240 ms, respectively. When compared with THP in the same manner, 3,10 and 30µM quinidine can prolong the AERP from 40 ms to 60, 80 and 130 ms; the VERP from 180 ms to 170, 180 and 190 ms; and the AVNERP from 130 ms to 150, 200 and 245 ms, respectively. Further, 3, 10 and 30µM THP can change the wenckbach cycle length (WCL) from 200 ms to 210, 230 and 280 ms, respectively; whereas 3, 10 and 30µM quinidine can change the WCL from 150 ms to 170, 210 and 300 ms, respectively. Both THP and quinidine prolong AERP, VERP and AVNERP, however, only quinidine inhibits conduction in AV node (prolonged AH interval). In contrast, even when the THP concentration raised to 10µM, the conduction in AV node is not inhibited.
# [2] = test system: rats subjected to 4 hours coronary ligation; test: Area at risk and infarct size after 4 hours coronary ligation (triphenyl tetrazolium chloride-Evan's blue staining); assay type: in vivo, rat; conditions: L-NAME 1x10^-3 g/kg
# Method: Infarct size was determined by the triphenyl tetrazolium chloride-Evan's blue staining technique. The rat was sacrificed after its left descending coronary artery had been occluded for 4 hours. The weight of infarct tissue was expressed as a percentage of total ventricular weight or occluded zone. The difference in infarct size was statistically analyzed using unpaired Student's t-test. Table 4 Area at risk and infarct size in vehicle and THP-treated rats subjected to 4 hours coronary ligation
# The difference in ischemic area and infarct size shown by staining technique after 4 hours of ischemia is evaluated. […] In the vehicle group, the necrotic area expresses either as a percentage of the area at risk (45.2±1.0%) or as a percentage of the total ventricle (19.8±2.2%), indicating the amount of cardiac tissue at risk becomes necrotic. Administration of THP reduces myocardial necrosis extension in a dose dependent manner. This reduction is observed either in the necrotic area/area at risk (38.1±5.0%, 29.0±2.5% and 10.7±1.8%/with 3.5x10^-7, 10^-6, 10^-5 g/kg of THP, respectively) or in the necrotic area/total ventricle (17.9+2.3%, 13.4±1.2% and 5.0±0.9% with 3.5x10^-7, 10^-6, 10^-5 g/kg of THP, respectively).
SMILES,reversal of ouabain-induced arrhythmia [1],atrial effective refractory period (AERP) (AV node conduction; 3µM),ventricular effective refractory period (VERP) (AV node conduction; 3µM),AV node effective refractory period (AVNERP) (AV node conduction; 3µM),wenckbach cycle length (WCL) (AV node conduction; 3µM),"AH interval (conduction in AV node) (AV node conduction; 10µM, isolated perfused heart)","HV interval (AV node conduction; 10µM, isolated perfused heart)","SA interval (AV node conduction; 10µM, isolated perfused heart)","T wave (AV node conduction; 10µM, isolated perfused heart)",atrial effective refractory period (AERP) (AV node conduction; 10µM),ventricular effective refractory period (VERP) (AV node conduction; 10µM),AV node effective refractory period (AVNERP) (AV node conduction; 10µM),wenckbach cycle length (WCL) (AV node conduction; 10µM),atrial effective refractory period (AERP) (AV node conduction; 30µM),ventricular effective refractory period (VERP) (AV node conduction; 30µM),AV node effective refractory period (AVNERP) (AV node conduction; 30µM),wenckbach cycle length (WCL) (AV node conduction; 30µM),Area at risk (% of ventricle) [2],Necrotic (% of Area at risk) [2],Necrotic (% of ventricle) [2]
C=C[C@H]1C[N@@]2CC[C@H]1C[C@@H]2[C@@H](O)c1ccnc2ccc(OC)cc12 [quinidine],does not reveal the efficacy,60 ms,170 ms,150 ms,170 ms,prolonged,prolonged,prolonged,prolonged,80 ms,180 ms,200 ms,210 ms,130 ms,190 ms,245 ms,300 ms,,,
"COC(=O)[C@@H](N)CCCNC(=N)N[N+](=O)[O-] [L-NAME, N^∞-nitro-L-arginine methyl ester, reference compound]",,,,,,,,,,,,,,,,,,47.5±0.2 % of ventricle,45.1±7.2 % of Area at risk,21.4±3.5 % of ventricle
